According to PMC9097471, “Development of Selective Phosphatidylinositol 5-Phosphate 4-Kinase γ Inhibitors with a Non-ATP-competitive, Allosteric Binding Mode” (Journal of Medicinal Chemistry, 2022):

Tests used:
[1] = molecular target: NUAK1 (Homo sapiens, UniProt O60285); assay: Kinase panel, radiometric 33P filter binding; settings: read-out: % activity remaining
Excerpt: (§3) filter binding assay using 33P-g-ATPat the MRC PPU International Centre for Kinase Profiling, University of

[2] = molecular target: PKBa (Homo sapiens, UniProt P31749); assay: Kinase panel, radiometric 33P filter binding; settings: read-out: % activity remaining
Excerpt: as §3

[3] = molecular target: JNK1 (Homo sapiens, UniProt P45983); assay: Kinase panel, radiometric 33P filter binding; settings: read-out: % activity remaining
Excerpt: as §3

[4] = molecular target: PIM2 (Homo sapiens, UniProt Q9P1W9); assay: Kinase panel, radiometric 33P filter binding; settings: read-out: % activity remaining
Excerpt: as §3

[5] = molecular target: Aurora B (Homo sapiens, UniProt Q96GD4); assay: Kinase panel, radiometric 33P filter binding; settings: read-out: % activity remaining
Aurora B, sequence (Q96GD4 whole entry): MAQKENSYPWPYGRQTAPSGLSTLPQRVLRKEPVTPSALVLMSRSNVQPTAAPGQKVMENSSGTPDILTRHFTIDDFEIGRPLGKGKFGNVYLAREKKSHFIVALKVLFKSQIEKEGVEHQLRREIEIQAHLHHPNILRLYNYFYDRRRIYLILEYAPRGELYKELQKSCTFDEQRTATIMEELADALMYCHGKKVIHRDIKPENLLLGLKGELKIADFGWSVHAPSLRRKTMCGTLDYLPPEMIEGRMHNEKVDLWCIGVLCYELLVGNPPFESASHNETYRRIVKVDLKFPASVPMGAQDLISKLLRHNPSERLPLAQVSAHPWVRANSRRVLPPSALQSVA
Excerpt: as §3

[6] = molecular target: CSK (Homo sapiens, UniProt P41240); assay: Kinase panel, radiometric 33P filter binding; settings: read-out: % activity remaining
CSK, sequence (P41240 whole entry): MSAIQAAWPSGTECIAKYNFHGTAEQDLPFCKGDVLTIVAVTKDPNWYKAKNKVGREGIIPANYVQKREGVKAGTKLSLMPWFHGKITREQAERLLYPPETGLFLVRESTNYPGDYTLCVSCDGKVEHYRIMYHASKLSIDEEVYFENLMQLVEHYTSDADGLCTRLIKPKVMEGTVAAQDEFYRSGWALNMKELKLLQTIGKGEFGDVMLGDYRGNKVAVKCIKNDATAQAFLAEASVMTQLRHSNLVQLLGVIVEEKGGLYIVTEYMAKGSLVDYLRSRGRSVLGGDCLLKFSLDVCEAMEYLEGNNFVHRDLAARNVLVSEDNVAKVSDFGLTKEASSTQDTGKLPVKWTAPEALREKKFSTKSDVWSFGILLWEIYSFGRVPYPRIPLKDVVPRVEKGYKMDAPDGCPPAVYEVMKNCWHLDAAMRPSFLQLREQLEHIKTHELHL

[7] = molecular target: PKD1 (Homo sapiens, UniProt Q15139); assay: Kinase panel, radiometric 33P filter binding; settings: read-out: % activity remaining
PKD1, sequence (Q15139 whole entry): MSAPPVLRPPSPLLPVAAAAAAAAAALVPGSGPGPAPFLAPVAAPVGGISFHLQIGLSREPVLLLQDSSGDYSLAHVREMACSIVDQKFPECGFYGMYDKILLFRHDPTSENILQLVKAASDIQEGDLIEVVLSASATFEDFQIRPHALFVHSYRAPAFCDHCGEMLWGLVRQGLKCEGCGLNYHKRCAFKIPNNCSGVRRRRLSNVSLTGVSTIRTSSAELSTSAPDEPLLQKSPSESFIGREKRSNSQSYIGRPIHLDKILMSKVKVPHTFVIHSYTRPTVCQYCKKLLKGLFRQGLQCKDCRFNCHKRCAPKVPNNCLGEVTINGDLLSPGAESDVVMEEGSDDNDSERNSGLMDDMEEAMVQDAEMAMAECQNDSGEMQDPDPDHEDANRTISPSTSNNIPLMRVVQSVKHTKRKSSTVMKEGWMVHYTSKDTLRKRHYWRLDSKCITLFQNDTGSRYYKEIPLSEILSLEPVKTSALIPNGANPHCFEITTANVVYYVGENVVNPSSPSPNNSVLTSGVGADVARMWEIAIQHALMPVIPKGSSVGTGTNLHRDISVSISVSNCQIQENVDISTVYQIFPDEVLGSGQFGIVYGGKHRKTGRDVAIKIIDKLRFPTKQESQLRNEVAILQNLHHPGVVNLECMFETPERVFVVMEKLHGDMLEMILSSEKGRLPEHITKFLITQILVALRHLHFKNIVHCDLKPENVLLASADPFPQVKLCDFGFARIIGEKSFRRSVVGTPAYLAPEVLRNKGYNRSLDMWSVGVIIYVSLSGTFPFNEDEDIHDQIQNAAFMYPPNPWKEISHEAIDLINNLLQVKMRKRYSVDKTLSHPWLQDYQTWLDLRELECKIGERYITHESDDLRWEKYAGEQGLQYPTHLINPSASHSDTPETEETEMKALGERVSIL
Excerpt: as §3

[8] = molecular target: MPSK1 (Homo sapiens, UniProt O75716); assay: Kinase panel, radiometric 33P filter binding; settings: read-out: % activity remaining
MPSK1, sequence (O75716 whole entry): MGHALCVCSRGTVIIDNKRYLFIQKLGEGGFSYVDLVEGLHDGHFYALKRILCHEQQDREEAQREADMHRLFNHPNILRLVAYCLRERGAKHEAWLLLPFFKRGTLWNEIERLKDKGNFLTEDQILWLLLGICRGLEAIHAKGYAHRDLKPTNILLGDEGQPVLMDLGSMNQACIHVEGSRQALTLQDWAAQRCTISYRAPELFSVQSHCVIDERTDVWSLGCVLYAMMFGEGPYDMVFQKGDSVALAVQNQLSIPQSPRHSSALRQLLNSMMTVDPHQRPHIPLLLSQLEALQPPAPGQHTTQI
Excerpt: as §3

[9] = molecular target: TrkA (Homo sapiens, UniProt P04629); assay: Kinase panel, radiometric 33P filter binding; settings: read-out: % activity remaining
Excerpt: as §3

[10] = molecular target: MST3 (Homo sapiens, UniProt Q9Y6E0); assay: Kinase panel, radiometric 33P filter binding; settings: read-out: % activity remaining
[11] = molecular target: TIE2 (Homo sapiens, UniProt Q02763); assay: Kinase panel, radiometric 33P filter binding; settings: read-out: % activity remaining
[12] = molecular target: PIP5K2a (Homo sapiens, UniProt P48426); assay: Lipid kinase panel, ADP-Glo; assay type: biochemical
PIP5K2a, sequence (P48426 whole entry, species assumed): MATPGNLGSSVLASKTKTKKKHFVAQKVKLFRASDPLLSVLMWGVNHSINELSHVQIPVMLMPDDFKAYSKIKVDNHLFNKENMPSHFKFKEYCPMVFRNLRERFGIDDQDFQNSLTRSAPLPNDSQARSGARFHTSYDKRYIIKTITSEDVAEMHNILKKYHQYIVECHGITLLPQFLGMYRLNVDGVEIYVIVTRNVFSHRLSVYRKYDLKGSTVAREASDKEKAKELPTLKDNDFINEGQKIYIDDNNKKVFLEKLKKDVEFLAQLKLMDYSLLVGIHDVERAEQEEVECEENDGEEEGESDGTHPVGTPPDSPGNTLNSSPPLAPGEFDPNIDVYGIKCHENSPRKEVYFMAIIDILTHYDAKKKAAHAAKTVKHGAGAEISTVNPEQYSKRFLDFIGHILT
Excerpt: (§1) Kinase % activity remaining s.d.
(§2) Choline Kinase alpha 101.6 3.2

[13] = molecular target: DGK gamma (Homo sapiens, UniProt P49619); assay: Lipid kinase panel, ADP-Glo; assay type: biochemical
Excerpt: as §1, §2

[14] = molecular target: PI3KA E545K +P85 (Homo sapiens, UniProt P42336, E545K); assay: Lipid kinase panel, ADP-Glo; assay type: biochemical; settings: PI3KA E545K +P85, 10 μM
Excerpt: as §1, §2

[15] = molecular target: SPHK2 (Homo sapiens, UniProt Q9NRA0); assay: Lipid kinase panel, ADP-Glo; assay type: biochemical; settings: SPHK2, 10 μM
Excerpt: as §1, §2

[16] = molecular target: SPHK1 (Homo sapiens, UniProt Q9NYA1); assay: Lipid kinase panel, ADP-Glo; assay type: biochemical; settings: SPHK1, 10 μM
Excerpt: as §1, §2

[17] = molecular target: Choline Kinase beta (Homo sapiens, UniProt Q9Y259); assay: Lipid kinase panel, ADP-Glo; assay type: biochemical
Choline Kinase beta, sequence (Q9Y259 whole entry, species assumed): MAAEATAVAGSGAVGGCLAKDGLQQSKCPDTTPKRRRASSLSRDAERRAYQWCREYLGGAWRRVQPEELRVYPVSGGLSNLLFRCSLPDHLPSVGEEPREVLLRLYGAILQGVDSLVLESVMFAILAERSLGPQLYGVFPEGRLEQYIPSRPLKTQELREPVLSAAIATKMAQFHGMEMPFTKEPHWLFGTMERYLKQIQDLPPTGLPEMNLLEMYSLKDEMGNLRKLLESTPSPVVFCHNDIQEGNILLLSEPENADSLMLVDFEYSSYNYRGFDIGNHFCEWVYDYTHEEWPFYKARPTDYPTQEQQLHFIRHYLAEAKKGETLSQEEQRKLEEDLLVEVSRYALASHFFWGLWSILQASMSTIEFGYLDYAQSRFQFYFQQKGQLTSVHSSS
Excerpt: as §1, §2

[18] = molecular target: Choline Kinase alpha (Homo sapiens, UniProt P35790); assay: Lipid kinase panel, ADP-Glo; assay type: biochemical
Excerpt: as §1, §2

[19] = molecular target: PI4K2a (Homo sapiens, UniProt Q9BTU6); assay: Lipid kinase panel, ADP-Glo; assay type: biochemical
Excerpt: as §1, §2

[20] = molecular target: PI3K gamma (Homo sapiens, UniProt P48736); assay: Lipid kinase panel, ADP-Glo; assay type: biochemical
Excerpt: as §1, §2

[21] = molecular target: DGK zeta (Homo sapiens, UniProt Q13574); assay: Lipid kinase panel, ADP-Glo; assay type: biochemical
Excerpt: as §1, §2

[22] = molecular target: PI3K beta (Homo sapiens, UniProt P42338); assay: Lipid kinase panel, ADP-Glo; assay type: biochemical
PI3K beta, sequence (P42338 whole entry, species assumed): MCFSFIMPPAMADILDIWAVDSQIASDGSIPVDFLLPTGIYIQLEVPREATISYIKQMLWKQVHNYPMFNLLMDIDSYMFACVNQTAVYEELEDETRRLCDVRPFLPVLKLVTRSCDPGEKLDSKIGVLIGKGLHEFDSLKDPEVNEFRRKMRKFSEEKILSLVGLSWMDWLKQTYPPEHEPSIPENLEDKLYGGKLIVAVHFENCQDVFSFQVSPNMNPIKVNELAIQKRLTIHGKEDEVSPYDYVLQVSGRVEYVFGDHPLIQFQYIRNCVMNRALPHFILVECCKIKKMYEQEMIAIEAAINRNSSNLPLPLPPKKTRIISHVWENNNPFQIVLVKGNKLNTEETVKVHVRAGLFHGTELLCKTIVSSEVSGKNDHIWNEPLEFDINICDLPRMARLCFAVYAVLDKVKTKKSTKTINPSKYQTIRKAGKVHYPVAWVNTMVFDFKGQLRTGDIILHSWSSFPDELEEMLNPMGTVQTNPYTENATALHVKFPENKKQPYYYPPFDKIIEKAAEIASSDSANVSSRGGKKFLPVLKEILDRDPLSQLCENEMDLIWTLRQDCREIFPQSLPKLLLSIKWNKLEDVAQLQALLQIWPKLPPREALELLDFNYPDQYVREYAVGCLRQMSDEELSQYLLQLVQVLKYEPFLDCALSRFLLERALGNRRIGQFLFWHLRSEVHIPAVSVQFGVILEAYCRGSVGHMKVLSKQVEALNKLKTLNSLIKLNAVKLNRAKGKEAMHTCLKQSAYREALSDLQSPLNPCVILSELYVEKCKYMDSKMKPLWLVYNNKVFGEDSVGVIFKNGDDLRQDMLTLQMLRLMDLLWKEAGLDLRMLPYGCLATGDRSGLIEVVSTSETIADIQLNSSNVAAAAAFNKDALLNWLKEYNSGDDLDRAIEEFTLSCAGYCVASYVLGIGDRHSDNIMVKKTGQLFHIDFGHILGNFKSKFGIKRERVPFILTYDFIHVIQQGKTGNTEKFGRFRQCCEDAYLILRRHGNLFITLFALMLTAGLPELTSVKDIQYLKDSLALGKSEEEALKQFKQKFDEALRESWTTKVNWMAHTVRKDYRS
PI3K beta, sequence (P27986 whole entry partner, species assumed): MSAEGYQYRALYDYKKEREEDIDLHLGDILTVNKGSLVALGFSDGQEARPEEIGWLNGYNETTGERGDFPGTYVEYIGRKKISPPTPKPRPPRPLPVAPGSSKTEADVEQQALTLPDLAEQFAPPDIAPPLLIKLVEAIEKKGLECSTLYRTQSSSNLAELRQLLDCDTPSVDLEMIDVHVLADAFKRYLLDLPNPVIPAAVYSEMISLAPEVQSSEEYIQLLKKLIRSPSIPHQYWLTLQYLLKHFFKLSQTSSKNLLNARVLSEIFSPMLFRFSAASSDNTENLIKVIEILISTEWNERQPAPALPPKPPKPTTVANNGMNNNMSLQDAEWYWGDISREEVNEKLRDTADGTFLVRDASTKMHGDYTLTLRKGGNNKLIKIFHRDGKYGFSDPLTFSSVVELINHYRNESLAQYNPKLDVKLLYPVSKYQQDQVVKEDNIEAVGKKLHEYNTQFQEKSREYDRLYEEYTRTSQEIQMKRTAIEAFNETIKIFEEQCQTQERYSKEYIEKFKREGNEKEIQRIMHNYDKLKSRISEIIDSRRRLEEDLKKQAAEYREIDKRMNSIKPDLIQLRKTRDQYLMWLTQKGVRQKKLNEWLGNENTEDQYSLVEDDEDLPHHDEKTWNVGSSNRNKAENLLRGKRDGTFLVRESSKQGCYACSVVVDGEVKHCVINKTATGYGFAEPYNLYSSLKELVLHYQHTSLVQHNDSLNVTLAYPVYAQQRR
Excerpt: as §1, §2

[23] = molecular target: DGK beta (Homo sapiens, UniProt Q9Y6T7); assay: Lipid kinase panel, ADP-Glo; assay type: biochemical
Excerpt: as §1, §2

[24] = test system: PI3Ka E524K +P85; assay: Lipid kinase panel, ADP-Glo; assay type: biochemical; settings: PI3Ka E524K +P85, 10 μM
Excerpt: as §1, §2

[25] = molecular target: PIK4Ca (Homo sapiens, UniProt P42356); assay: Lipid kinase panel, ADP-Glo; assay type: biochemical
Excerpt: as §1, §2

[26] = molecular target: PI3Kalpha (Homo sapiens, UniProt P42336); assay: Lipid kinase panel, ADP-Glo; assay type: biochemical
Excerpt: as §1, §2

[27] = molecular target: HIPK3 (Homo sapiens, UniProt Q9H422); assay: Kinase panel, radiometric 33P filter binding; settings: read-out: % activity remaining
Excerpt: as §3

[28] = molecular target: ERK2 (Homo sapiens, UniProt P28482); assay: Kinase panel, radiometric 33P filter binding; settings: read-out: % activity remaining
Excerpt: as §3

[29] = molecular target: p38g MAPK (Homo sapiens, UniProt P53778); assay: Kinase panel, radiometric 33P filter binding; settings: read-out: % activity remaining
p38g MAPK, sequence (P53778 whole entry): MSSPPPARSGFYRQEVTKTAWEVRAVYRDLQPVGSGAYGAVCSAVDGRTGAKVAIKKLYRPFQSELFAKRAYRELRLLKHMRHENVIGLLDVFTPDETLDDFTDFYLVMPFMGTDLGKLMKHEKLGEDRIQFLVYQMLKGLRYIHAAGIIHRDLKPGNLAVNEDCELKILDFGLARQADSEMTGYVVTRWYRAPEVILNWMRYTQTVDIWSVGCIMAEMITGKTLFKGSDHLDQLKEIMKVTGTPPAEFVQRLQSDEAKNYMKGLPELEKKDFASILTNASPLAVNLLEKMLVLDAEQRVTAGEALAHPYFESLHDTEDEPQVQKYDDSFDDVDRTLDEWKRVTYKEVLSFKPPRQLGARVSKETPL
Excerpt: as §3

[30] = molecular target: STK33 (Homo sapiens, UniProt Q9BYT3); assay: Kinase panel, radiometric 33P filter binding; settings: read-out: % activity remaining
Excerpt: as §3

[31] = molecular target: SIK2 (Homo sapiens, UniProt Q9H0K1); assay: Kinase panel, radiometric 33P filter binding; settings: read-out: % activity remaining
Excerpt: as §3

[32] = molecular target: ULK1 (Homo sapiens, UniProt O75385); assay: Kinase panel, radiometric 33P filter binding; settings: read-out: % activity remaining
Excerpt: as §3

[33] = test system: PI5P4Kα; set-up: method as in ref 30 (a number printed in a supplementary file, which may have a reference list of its own: not looked up in the article's list); settings: 32P-ATP/PI5P incorporation; cited from earlier work

`CC(C)c1ccccc1-c1nc(NCc2ccccn2)c2c(ccn2C)n1` [Compound 40] showed a remaining activity at 10 µM [1] of 88%, a remaining activity at 10 µM [2] of 103% and a remaining activity at 10 µM [3] of 86%. The remaining activity at 10 µM [4] was 110%, the remaining activity at 10 µM [5] was 113% and the remaining activity at 10 µM [6] was 94%. It also gave a remaining activity at 10 µM [7] of 109%, a remaining activity at 10 µM [8] of 106% and a remaining activity at 10 µM [9] of 100%. For the same compound, the remaining activity at 10 µM [10] was 110%, the remaining activity at 10 µM [11] was 89% and the remaining activity at 10 µM [12] was 100%. For the same compound, the remaining activity at 10 µM [13] was 99.4%, the remaining activity at 10 µM [14] was 91.7% and the remaining activity at 10 µM [15] was 83.8%. For the same compound, the remaining activity at 10 µM [16] was 91.8%, the remaining activity at 10 µM [17] was 97.3% and the remaining activity at 10 µM [18] was 102%. The remaining activity at 10 µM [19] was 93.5%, the remaining activity at 10 µM [20] was 103% and the remaining activity at 10 µM [21] was 106%. The remaining activity at 10 µM [22] was 111%, the remaining activity at 10 µM [23] was 102% and the “% activity remaining” value [24] was 102.0%. It also gave a remaining activity at 10 µM [25] of 81.1%, a remaining activity at 10 µM [26] of 91.4% and a remaining activity at 10 µM [27] of 92%. For the same compound, the remaining activity at 10 µM [28] was 98%, the remaining activity at 10 µM [29] was 105% and the remaining activity at 10 µM [30] was 99%. For the same compound, the remaining activity at 10 µM [31] was 100% and the remaining activity at 10 µM [32] was 111%.
For `FC(F)(F)c1ccccc1-c1nc(NCc2cccs2)c2ccccc2n1` [Compound 1, NIH-12848, reference compound], the IC50 [33] is listed as over 100 µM.
